Columns and labels:
récepteurs AMPA/Kainate = experiment: Hippocampal EPSP induced by AMPA/Kainate receptor activation (rat hippocampal slices, Schäffer collaterals stimulation); format: cell-based; conditions: for IC50: rat hippocampal slices, CA1, in presence of Mg++ (blocks NMDA receptors), read-out: IC50 (inhibition des EPSP hippocampiques induits par l'activation des récepteurs AMPA/Kainate); for EPSP hippocampique IC50 AMPA-Kainate/IC50 NMDA-Glycine: ratio of IC50 on AMPA-Kainate EPSP to IC50 on NMDA-Glycine EPSP
Procedure: Des coupes transversales (500 µm) d'hippocampe de Rat sont placées dans un milieu de composition : NaCl (120 mM), KCl (5 mM), CaCl₂ (1 mM), MgSO₄ (1 mM), KH₂PO₄ (1,3 mM), NaHCO₃ (20 mM), HEPES (10 mM), glucose (10 mM), pH 7,35. Les "EPSP" sont enregistrés dans le champ dendritique de la région CA1 lors de stimulations toutes les 30 secondes de la stratum radiatum (50-100 µA, 20 µs). Les EPSP sont évalués au maximum de l'onde négative. Le produit étudié est appliqué durant 10 minutes.

récepteur AMPA [1] = experiment: AMPA-induced currents in Xenopus oocytes injected with rat cerebral cortex mRNA (two-electrode voltage clamp); format: cell-based; conditions: for Ki: Xenopus oocyte, AMPA 30 µM, -60 mV, read-out: Courant AMPA Ki; for Oocyte de Xenopus Ki AMPA/Ki NMDA/Gly: ratio of Ki on AMPA current to Ki on NMDA/Gly current
Procedure: (§1) Des oocytes de Xenopus sont injectés de 50 ng d'ARNm poly (A^+) isolés de cortex cérébral de Rat et incubés 2 à 3 Jours à 18°C pour en permettre l'expression protéique. Les courants entrants induits par les AAE sont mesurés dans un milieu de composition : NaCl (82,5 mM), KCl (2,5 mM), CaCl₂ (1 mM), MgCl₂ (1 mM), NaH₂PO₄ (1 mM), HEPES (5 mM), pH 7,4 par la méthode du Voltage-clamp à 2 électrodes (potentiel = - 60 mV). Pour la mesure des courants induits par le NMDA et la glycine, MgCl₂ est absent du milieu et le CaCl₂ est amené à la concentration de 2 mM. Les agonistes AAE induisant les courants sont utilisés aux concentrations suivantes : kainate : 100 µM; AMPA : 30 µM; glycine/NMDA : 3/30 µM. Le produit étudié est appliqué 30 secondes avant et durant l'application de l'agoniste.

récepteur AMPA [2] = experiment: Membrane binding (3H-AMPA), rat cortex homogenate; conditions: binding to AMPA receptor, rat cortex membranes, 4°C, 30 min
Procedure: Il est réalisé à partir d'un homogénat de cortex de Rat. Le culot membranaire est classiquement préparé dans un tampon saccharose par centrifugations différentielles puis congelé jusqu'à utilisation. Après décongélation, 200 µl d'homogénat de membranes sont repris dans un tampon Tris HCl (30 mM), CaCl₂ (2,5 mM), pH 7,4 et incubés à 4°C pendant 30 minutes en présence de 25 µl de ³H-AMPA ou de ³H-Kainate et de 25 µl du produit à tester. La liaison non-spécifique est déterminée en présence de 10 µM de quisqualate (binding AMPA) ou de 10 µM d'acide kainique (binding kainate). Les membranes sont ensuite isolées par filtration. Après séchage des filtres, la radioactivité est mesurée par scintillation.

récepteur kainate = experiment: Kainate-induced currents in Xenopus oocytes injected with rat cerebral cortex mRNA (two-electrode voltage clamp); format: cell-based; conditions: Xenopus oocyte, kainate 100 µM, -60 mV; read-out: Courant Kainate IC50
Procedure: as §1

Row | IC50 (récepteurs AMPA/Kainate) [nM] | EPSP hippocampique IC50 AMPA-Kainate/IC50 NMDA-Glycine (récepteurs AMPA/Kainate) | Ki (récepteur AMPA [1]) [nM] | IC50 (récepteur kainate) [nM] | SMILES | Oocyte de Xenopus Ki AMPA/Ki NMDA/Gly (récepteur AMPA [1]) | Ki (récepteur AMPA [2]) [nM]
1 | 2900 | 0,03 | 400 | 270 | N#Cc1cc2c(cc1[N+](=O)[O-])=NC(=O)C(=O)N=2 [CNQX, 6-cyano-7-nitroquinoxaline-2,3-dione] | 0,19 | 70
2 | 1000 | << 0,001 | 60 | 60 | NS(=O)(=O)c1cccc2c3c(cc([N+](=O)[O-])c12)=NC(=O)C(=O)N=3 [NBQX, 6-nitro-7-sulfamoylbenzo[f]quinoxaline-2,3-dione] | << 0,001 | –

Row | SMILES | IC50 (récepteurs AMPA/Kainate) [nM] | EPSP hippocampique IC50 AMPA-Kainate/IC50 NMDA-Glycine (récepteurs AMPA/Kainate) | Ki (récepteur AMPA [1]) [nM] | IC50 (récepteur kainate) [nM] | Oocyte de Xenopus Ki AMPA/Ki NMDA/Gly (récepteur AMPA [1]) | Ki (récepteur AMPA [2]) [nM]
3 | O=c1[nH]c2cc([N+](=O)[O-])ccc2cc1NS(=O)(=O)C(F)(F)F [Exemple 2, 7-Nitro-3-(trifluorométhylsulfonylamino)-2-(1H)-quinoléinone] | 10000 | 0,25 | 370 | 500 | 0,60 | 600
